± gives the standard deviation of the averaged measurements.
System: G401
Test: relative viability vs DMSO control (72 h) (fraction); higher = more viable cells
How it was run: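 After seeding at densities set for 80–90% confluence in 384-well plates, sarcoma cell lines waited 24 h before 2.5 µl of serially diluted compound was added. Source plates held 10 mM down to 0.0002 mM. Plates were incubated 72 h at 37 °C with 5% CO2, with 0.1% DMSO vehicle and a 5 µM positive control, and relative viability was taken from ATPLite as percent growth averaged over up to triplicate wells, with 1 set as full and 0 as none.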

Row | Structure (SMILES) | relative viability (0.00017 µM) | relative viability (0.00051 µM) | relative viability (0.00152 µM) | relative viability (0.00457 µM) | relative viability (0.01372 µM) | relative viability (0.04115 µM) | relative viability (0.1235 µM) | relative viability (0.3704 µM) | relative viability (1.111 µM) | relative viability (3.333 µM) | relative viability (10 µM) | relative viability (2 pM) | relative viability (5 pM) | relative viability (15 pM) | relative viability (50 pM) | relative viability (0.00014 µM) | relative viability (0.00041 µM) | relative viability (0.0012 µM) | relative viability (0.0037 µM) | relative viability (0.011 µM) | relative viability (200 fM) | relative viability (600 fM)
1 | CCc1cc2c(cc1N1CCC(N3CCOCC3)CC1)C(C)(C)c1[nH]c3cc(C#N)ccc3c1C2=O [Alectinib] | 0.947 ± 0.037 | 0.983 ± 0.023 | 0.977 ± 0.028 | 0.991 ± 0.037 | 0.981 ± 0.026 | 0.954 ± 0.029 | 1.01 ± 0.031 | 1.01 ± 0.056 | 1.03 ± 0.057 | 0.991 ± 0.039 | 0.894 ± 0.037 |  |  |  |  |  |  |  |  |  |  | 
2 | COCc1c(-c2cc3cc(C)cc(OC)c3s2)c2c(N)ncnn2c1CN1CCNC(=O)C1 [Rogaratinib] | 1.05 ± 0.015 | 1.06 ± 0.037 | 1.02 ± 0.031 | 1.01 ± 0.011 | 1.018 ± 0.0054 | 0.967 ± 0.038 | 0.8878 ± 0.0073 | 0.68 ± 0.015 | 0.592 ± 0.024 | 0.532 ± 0.043 | 0.375 ± 0.0068 |  |  |  |  |  |  |  |  |  |  | 
3 | C[C@@H]1CCN(C(=O)CC#N)C[C@@H]1N(C)c1ncnc2[nH]ccc12 [Tofacitinib] | 1.07 ± 0.026 | 1.044 ± 0.0027 | 1.06 ± 0.027 | 1.02 ± 0.015 | 1.05 ± 0.012 | 1.05 ± 0.026 | 1.03 ± 0.035 | 1.07 ± 0.048 | 1.04 ± 0.045 | 1.06 ± 0.056 | 1.06 ± 0.037 |  |  |  |  |  |  |  |  |  |  | 
4 | O=C(Cc1ccc(-c2ccc(OCCN3CCOCC3)cc2)cn1)NCc1ccccc1 [KX2-391] | 1.05 ± 0.047 | 1.05 ± 0.025 | 1.02 ± 0.033 | 1.05 ± 0.036 | 1.022 ± 0.0094 | 0.944 ± 0.027 | 0.555 ± 0.019 | 0.446 ± 0.013 | 0.421 ± 0.013 | 0.38 ± 0.014 | 0.368 ± 0.0095 |  |  |  |  |  |  |  |  |  |  | 
5 | C[C@@H](c1ccc2nccn2c1)n1nnc2ncc(-c3cnn(C)c3)nc21 [Volitinib] | 1.01 ± 0.029 | 1.01 ± 0.042 | 1.03 ± 0.035 | 1.04 ± 0.044 | 1 ± 0.018 | 1.03 ± 0.019 | 1.03 ± 0.015 | 1.04 ± 0.046 | 1.03 ± 0.049 | 0.987 ± 0.026 | 0.955 ± 0.025 |  |  |  |  |  |  |  |  |  |  | 
6 | C[C@]1(O)C[C@@H](c2nc(-c3ccc4ccc(-c5ccccc5)nc4c3)c3c(N)nccn32)C1 [Linsitinib] | 1 ± 0.063 | 0.974 ± 0.026 | 1.02 ± 0.048 | 0.955 ± 0.013 | 0.992 ± 0.023 | 0.894 ± 0.034 | 0.791 ± 0.049 | 0.668 ± 0.013 | 0.627 ± 0.007 | 0.562 ± 0.017 | 0.466 ± 0.026 |  |  |  |  |  |  |  |  |  |  | 
7 | COc1cc2c(Oc3ccc4[nH]c(C)cc4c3F)ncnc2cc1OCCCN1CCCC1 [Cediranib] | 0.97 ± 0.055 | 1.03 ± 0.015 | 0.993 ± 0.031 | 0.981 ± 0.059 | 0.995 ± 0.029 | 1.01 ± 0.024 | 0.95 ± 0.024 | 0.828 ± 0.013 | 0.47 ± 0.019 | 0.273 ± 0.02 | 0.00627 ± 0.0033 |  |  |  |  |  |  |  |  |  |  | 
8 | CC(C)(C)c1cc(NC(=O)Nc2ccc(-c3cn4c(n3)sc3cc(OCCN5CCOCC5)ccc34)cc2)no1 [Quizartinib] | 1.02 ± 0.04 | 1.01 ± 0.017 | 1.05 ± 0.048 | 1.06 ± 0.026 | 1.04 ± 0.039 | 0.984 ± 0.052 | 1 ± 0.013 | 0.926 ± 0.011 | 0.971 ± 0.021 | 0.945 ± 0.051 | 0.87 ± 0.023 |  |  |  |  |  |  |  |  |  |  | 
9 | COc1cc2/c(=N/c3ccc(Br)cc3F)nc[nH]c2cc1OCC1CCN(C)CC1 [Vandetanib] | 0.983 ± 0.019 | 0.98623 ± 0.00074 | 0.989 ± 0.019 | 0.99 ± 0.028 | 0.993 ± 0.025 | 0.968 ± 0.025 | 0.971 ± 0.015 | 0.988 ± 0.033 | 0.87 ± 0.013 | 0.736 ± 0.0092 | 0.0218 ± 0.0004 |  |  |  |  |  |  |  |  |  |  | 
10 | COc1cc2c(cc1O)CCN[C@]21CS[C@@H]2c3c(OC(C)=O)c(C)c4c(c3[C@H](COC1=O)N1[C@@H]2[C@H]2c3c(cc(C)c(OC)c3O)C[C@@H]([C@@H]1O)N2C)OCO4 [Trabectedin] |  |  |  |  |  |  |  |  |  |  |  | 1.03 ± 0.017 | 1.02 ± 0.025 | 0.993 ± 0.018 | 0.991 ± 0.014 | 0.832 ± 0.043 | 0.516 ± 0.024 | 0.0964 ± 0.077 | 0.126 ± 0.016 | 0.0862 ± 0.0056 | 1.05 ± 0.032 | 1.03 ± 0.04
11 | Nc1cc(C(F)(F)F)c(-c2cc(N3CCOCC3)nc(N3CCOCC3)n2)cn1 [Buparlisib] | 0.957 ± 0.011 | 0.983 ± 0.013 | 0.932 ± 0.024 | 0.966 ± 0.022 | 1 ± 0.027 | 0.928 ± 0.041 | 0.86 ± 0.027 | 0.767 ± 0.037 | 0.594 ± 0.014 | 0.304 ± 0.005 | 0.237 ± 0.0068 |  |  |  |  |  |  |  |  |  |  | 
12 | CC(C)NC(=O)C1CCC(n2c(NC(=O)c3ccc(F)cc3)nc3ccc(CN4CCC(C(C)(C)O)CC4)cc32)CC1 (stereo not drawn) [Belizatinib] | 1.01 ± 0.043 | 0.997 ± 0.054 | 1.01 ± 0.061 | 1 ± 0.064 | 1.02 ± 0.022 | 1.01 ± 0.015 | 0.974 ± 0.038 | 0.877 ± 0.026 | 0.606 ± 0.015 | 0.305 ± 0.027 | 0.154 ± 0.02 |  |  |  |  |  |  |  |  |  |  | 
13 | N#CC[C@H](C1CCCC1)n1cc(-c2ncnc3[nH]ccc23)cn1 [Ruxolitinib] | 0.971 ± 0.051 | 1.01 ± 0.037 | 1.01 ± 0.034 | 1 ± 0.026 | 1.02 ± 0.02 | 0.969 ± 0.039 | 0.99 ± 0.024 | 0.935 ± 0.047 | 0.942 ± 0.035 | 0.936 ± 0.025 | 0.824 ± 0.034 |  |  |  |  |  |  |  |  |  |  | 
